Assay: Clinical study: gastric juice pH after irrigation
Assay type: in vivo
Settings: patients; acetylcysteine (12 mg/ml) solution irrigation of gastric mucosa after two tablets of sublingual Takepron
Description: Ten patients having H. pylori infection without prior eradication therapy were enrolled. Before the intraluminal therapy, two tablets of proton pump inhibitor (Takepron) were sublingually administered to the patient. Using the system of the invention, the gastric mucosa was irrigated with acetylcysteine (12 mg/ml) solution to remove the acid and mucous on the gastric mucosa. The pH levels before and after irrigation were measured. The acidity of the gastric juice could be well controlled at around pH 5.0 after irrigation. The total dosage of acetylcysteine was less than 140 mg/kg. Then amoxicillin, metronidazole, clarithromycin, sucrate gel and distilled water were mixed to form a complex. […] The viscosities of the complexes were shown below.

SMILES: CC(=O)N[C@@H](CS)C(=O)O [acetylcysteine]
- pH of gastric juice after irrigation: ~5.0 pH

Reference: patent US11110209B2, “Intraluminal therapy system for gastrointestinal infections” (MACKAY MEDICAL FOUNDATION THE PRESBYTERIAN CHURCH IN TAIWAN …, priority 2017, dated 2021)
